These are literature values, as cited in patent publication US20220016058A1, “PHARMACEUTICAL COMPOSITION CONTAINING TAMSULOSIN HYDROCHLORIDE WITH EXCELLENT ACID RESISTANCE AND PREPARATION METHOD THEREFOR” (HANMI PHARM. CO., LTD., priority 2018, published 2022).

Structures are written as SMILES. Where a name gives a salt, the structure may show the parent alone.

For `CCOc1ccccc1OCCN[C@H](C)Cc1ccc(OC)c(S(N)(=O)=O)c1` [tamsulosin hydrochloride, Tamsulosin hydrochloride], the Solubility in water result is reported as “dissolving a little in water”.
